Source: patent US12433961B2, “Near-infrared fluorescent probe specifically targeting tumors as well as synthesis method and use thereof” (NANJING NUOYUAN MEDICAL INSTRUMENT CO. LTD, priority 2022, dated 2025)

Tested on: colorectal cancer HT29 subcutaneous tumor
Assay: In-vivo near-infrared fluorescence imaging in subcutaneous HT29 tumor-bearing mouse model
Details: HT29 tumor-bearing mice, 30 nmol tail vein, imaging 0 h-48 h
Procedure: In a subcutaneous tumor HT29 tumor-bearing mouse model, YQ-H (30 nmol, dissolved with 100 μL of normal saline for injection) series probes respectively underwent tail vein administration, fluorescence imaging was respectively photographed at different time points (0 h, 6 h, 12 h, 24 h and 48 h in sequence) by small animal living imaging CCD.

- fluorescence signals in liver: strong fluorescence signals in liver
SMILES: CC1(C)C(/C=C/C2=C(SCCC(=O)NCCCCCC(=O)N(CCS(C)(=O)=O)Cc3ccc(-c4ccc5ncnc(Nc6ccc(OCc7cccc(F)c7)c(Cl)c6)c5c4)o3)C(=C/C=C3/N(CCCS(=O)(=O)O)c4ccc(S(=O)(=O)O)cc4C3(C)C)/CCC2)=[N+](CCCS(=O)(=O)O)c2ccc(S(=O)(=O)[O-])cc21 [YQ-H-03]
- tumor targeting effect: a certain tumor targeting effect
